One compound from patent EP4714938A1, “HDAC1/2 SELECTIVE INHIBITOR AND USE THEREOF” (Wigen Biomedicine Technology (Shanghai) Co., Ltd., priority 2023, dated 2024) can be followed below.

Read-outs that look alike come from different tables or passages of the source.

One data set concerns the target T1, HDAC10 (Homo sapiens, UniProt Q969S8).
T1 sequence (Q969S8 1-669): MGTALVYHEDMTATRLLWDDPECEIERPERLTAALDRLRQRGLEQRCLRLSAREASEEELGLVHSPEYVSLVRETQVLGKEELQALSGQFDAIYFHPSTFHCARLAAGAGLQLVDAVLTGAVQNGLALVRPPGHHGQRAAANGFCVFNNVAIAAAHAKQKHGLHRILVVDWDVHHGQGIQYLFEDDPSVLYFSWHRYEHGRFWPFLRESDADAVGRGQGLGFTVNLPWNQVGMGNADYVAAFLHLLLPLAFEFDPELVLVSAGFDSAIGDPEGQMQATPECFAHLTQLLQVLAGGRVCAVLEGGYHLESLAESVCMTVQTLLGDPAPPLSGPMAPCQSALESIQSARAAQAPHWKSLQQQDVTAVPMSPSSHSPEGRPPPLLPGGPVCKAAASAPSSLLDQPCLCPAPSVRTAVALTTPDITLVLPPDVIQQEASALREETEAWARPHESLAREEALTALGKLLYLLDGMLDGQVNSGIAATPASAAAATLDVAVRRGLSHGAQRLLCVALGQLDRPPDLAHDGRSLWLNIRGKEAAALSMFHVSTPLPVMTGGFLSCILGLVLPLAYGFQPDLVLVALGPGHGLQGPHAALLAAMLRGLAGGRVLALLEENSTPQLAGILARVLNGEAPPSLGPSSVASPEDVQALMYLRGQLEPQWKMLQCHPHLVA
The experiment in a line: biochemical.

The next data set addresses HDAC1 (Homo sapiens, UniProt Q13547). The experiment in a line: HDAC enzyme inhibitory activity, FRET method. The data set is classed as biochemical.
Data set [1] can be described thus: Pharmacokinetic experiment in mice. The note with it: mouse, plasma. The data set is classed as in vivo, CD-1 female mice. How it is done:
CD-1 female mice aged 7 to 10 weeks were intravenously administered and orally administered at doses of 1 mg/kg and 10 mg/kg, respectively. The mice were fasted for at least 12 h before the administration and given food 4 h after the administration, and they were given ad libitum access to water during the experiment.
On the day of the experiment, animals in the intravenous group were given the corresponding compound by single injection via the tail vein at an administration volume of 10 mL/kg; and animals in the oral group were given the corresponding compound by single intragastric injection at an administration volume of 10 mL/kg. The animals were weighed before administration, and the administration volume was calculated according to the body weight. The sample collection time points were 0.083 h, 0.167 h, 0.5 h, 1 h, 2 h, 4 h, 8 h, and 24 h.
About 200 µL of whole blood was collected through the orbital venous plexus at each time point and used to prepare plasma for concentration determination by high-performance liquid chromatography-tandem mass spectrometry (LC-MS/MS). The plasma concentrations were processed using a non-compartmental model of Winnolin pharmacokinetic software, and the pharmacokinetic parameters were calculated using a linear-log trapezoidal method. Table 9. Results of in vivo pharmacokinetic evaluation of compounds of the present disclosure

Another data set addresses HDAC9 (Homo sapiens, UniProt Q9UKV0). The experiment in a line: HDAC enzyme inhibitory activity, FRET method. The data set is classed as biochemical. The note with it: Table 6; read-out: IC50 HDAC subtype 9.
The target of the next data set is T2, HDAC8 (Homo sapiens, UniProt Q9BY41).
T2 sequence (Q9BY41 1-377): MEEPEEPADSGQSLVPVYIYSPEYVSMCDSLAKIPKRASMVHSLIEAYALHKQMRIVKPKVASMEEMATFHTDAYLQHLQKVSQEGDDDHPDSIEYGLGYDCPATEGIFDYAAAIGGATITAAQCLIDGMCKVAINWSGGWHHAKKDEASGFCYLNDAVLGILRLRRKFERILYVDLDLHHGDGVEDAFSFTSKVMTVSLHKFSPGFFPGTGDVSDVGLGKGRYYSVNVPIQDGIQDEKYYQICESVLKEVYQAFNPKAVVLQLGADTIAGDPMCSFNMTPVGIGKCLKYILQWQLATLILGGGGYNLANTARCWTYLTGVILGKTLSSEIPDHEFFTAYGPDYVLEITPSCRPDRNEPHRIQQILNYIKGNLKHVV
The experiment in a line: HDAC enzyme inhibitory activity, FRET method. The note with it: Table 6; read-out: IC50 HDAC subtype 8. The data set is classed as biochemical.

For a further data set, the system named is Acetyl lysine. Description: Intracellular acetyl lysine level by ELISA in HeLa cells. It counts as cell-based. The note with it: 24 h of treatment. How it is done:
HeLa cells were seeded into a 96-well plate at 20000 cells/well. After overnight adherence culture, the serially diluted compound was added. After 24 h of treatment, intracellular levels of acetyl lysine and H3K 27 acetyl lysine were quantified by ELISA. Table 8. Effect of compound of the present disclosure on levels of acetyl lysine and H3K 27 acetyl lysine
A general note: In an ELISA, binding on a coated surface is turned into a signal by an enzyme label.

The mark [2] stands for this setting: Injection (1 mg/kg), intravenous.

Chain of HDAC1 (Q13547 whole entry, species assumed): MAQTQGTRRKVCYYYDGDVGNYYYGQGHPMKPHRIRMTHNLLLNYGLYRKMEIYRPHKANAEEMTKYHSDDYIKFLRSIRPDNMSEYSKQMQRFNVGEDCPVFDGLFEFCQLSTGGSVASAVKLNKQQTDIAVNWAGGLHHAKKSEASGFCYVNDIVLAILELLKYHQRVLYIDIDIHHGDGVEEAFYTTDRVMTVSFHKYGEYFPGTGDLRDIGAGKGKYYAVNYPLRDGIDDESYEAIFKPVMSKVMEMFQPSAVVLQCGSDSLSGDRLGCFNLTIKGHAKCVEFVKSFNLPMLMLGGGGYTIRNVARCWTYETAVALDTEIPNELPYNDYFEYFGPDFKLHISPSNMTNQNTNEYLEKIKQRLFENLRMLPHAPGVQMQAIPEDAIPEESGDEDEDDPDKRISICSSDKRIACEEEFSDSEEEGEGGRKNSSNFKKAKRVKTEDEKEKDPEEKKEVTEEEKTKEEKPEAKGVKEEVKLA
Chain of HDAC9 (Q9UKV0 whole entry, species assumed): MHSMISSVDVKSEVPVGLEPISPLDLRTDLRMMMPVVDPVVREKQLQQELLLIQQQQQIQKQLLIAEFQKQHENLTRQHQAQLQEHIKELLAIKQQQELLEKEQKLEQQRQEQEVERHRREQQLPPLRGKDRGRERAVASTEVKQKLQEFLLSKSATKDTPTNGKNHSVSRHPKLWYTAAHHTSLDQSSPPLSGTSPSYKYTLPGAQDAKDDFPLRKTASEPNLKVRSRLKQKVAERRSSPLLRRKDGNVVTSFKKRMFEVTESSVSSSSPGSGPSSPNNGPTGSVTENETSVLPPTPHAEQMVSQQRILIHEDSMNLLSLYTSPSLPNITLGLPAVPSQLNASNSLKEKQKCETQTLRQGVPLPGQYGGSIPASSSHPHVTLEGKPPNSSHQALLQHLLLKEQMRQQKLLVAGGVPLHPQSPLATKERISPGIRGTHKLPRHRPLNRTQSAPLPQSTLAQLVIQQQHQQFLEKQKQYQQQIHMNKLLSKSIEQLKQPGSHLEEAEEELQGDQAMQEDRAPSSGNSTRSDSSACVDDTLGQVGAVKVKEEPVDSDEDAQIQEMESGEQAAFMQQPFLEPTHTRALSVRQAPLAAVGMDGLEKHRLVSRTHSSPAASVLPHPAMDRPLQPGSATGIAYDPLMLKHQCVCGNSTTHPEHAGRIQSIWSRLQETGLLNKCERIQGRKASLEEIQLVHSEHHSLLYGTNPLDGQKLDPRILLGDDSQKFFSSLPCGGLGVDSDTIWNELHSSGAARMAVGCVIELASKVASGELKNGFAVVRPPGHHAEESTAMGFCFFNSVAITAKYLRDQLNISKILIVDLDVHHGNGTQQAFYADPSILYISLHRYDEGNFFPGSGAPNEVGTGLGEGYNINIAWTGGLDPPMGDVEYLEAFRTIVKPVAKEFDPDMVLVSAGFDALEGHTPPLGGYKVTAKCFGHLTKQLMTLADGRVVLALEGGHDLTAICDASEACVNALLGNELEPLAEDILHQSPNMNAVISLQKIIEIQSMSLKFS
Experimental for HDAC10: (§1) The compounds of the present disclosure were assayed for enzyme inhibitory activity against various subtypes of HDAC enzymes by the FRET method. The various subtypes of HDAC enzymes were obtained either through purification or direct purchase of assay kits.
(§2) The specific method was as follows: The enzyme was added to a 384-well plate, and a reaction buffer was added to the control well. Serially diluted DMSO sample solutions were added to the reaction wells, and the plate was incubated at room temperature for 15 min. Then a chromogenic agent was added to stop the reaction, and fluorescence was generated. The fluorescence intensity was measured using an EnVision multi-label microplate reader (excitation: 355 nm, emission: 460 nm). The endpoint value was read after the color development reached stability. The inhibition IC50 of the compounds was calculated using GraphPad Prism4 software relative to DMSO.
Experimental for HDAC8: as §1, §2
Experimental for HDAC9: as §1, §2

One may read the IC50 as the concentration needed to halve the response being measured. What is called AUC(0-t) is exposure summed from dosing to a finite time, without extrapolation to infinity. Broadly, the clearance is the rate of elimination divided by the concentration. Higher therefore signals a high capacity for elimination. Broadly, the half-life is the time needed for the level to fall by half in the phase considered. Read a low half-life as fast loss. By Cmax is commonly meant the highest concentration seen after dosing. The Tmax is the time from dosing to the highest level. A word on the bioavailability: it is dose-corrected exposure relative to a reference, in per cent. Read a high bioavailability as much systemic uptake. The compound `CS(C)(=O)=Nc1ccc(C(=O)Nc2cc(-c3ccc(F)cc3)ccc2N)cc1` [Compound 1, N-(4-Amino-4'-fluoro-[1,1'-biphenyl]-3-yl)-4-((dimethyl(oxo)-1^λ-6-sulfaneylidene)amino)benzamide] had an IC50 on HDAC10 of 22.2 nM. Further, at HDAC1 (Table 4, read-out: IC50 HDAC1), the IC50 is under 500 nM. The IC50 on HDAC1 (Table 5, read-out: IC50 HDAC1) was under 30 nM. Also, the IC50 on HDAC1 (Table 6, read-out: IC50 HDAC subtype 1) came out at 26.5 nM. In data set [1] (setting [2]), the AUC(0-t) was 2280 ng·h/mL, the clearance worked out at 7.29 mL/min/kg and the half-life is 3.01 h. Besides, the Vd in data set [1] (Injection (1 mg/kg), intravenous, read-out: Vdss) came to 1.68 L/kg. For the same compound, in data set [1] (Oral administration (10 mg/kg)), the AUC(0-t) worked out at 15400 ng·h/mL, the concentration peaked (Cmax) at 1370 ng/mL, the Tmax was determined as 2 h and the bioavailability is 67.4%. In data set [1] (Oral administration (10 mg/kg)), this compound gave a half-life of 2.73 h. Besides, the IC50 at HDAC9 was over 30000 nM. Further, the IC50 on HDAC8 was over 30000 nM. In the data set on Acetyl lysine, the “Acetyl lysine Maximum (%)” value was 500% and the “Acetyl lysine Minimum effective concentration” value was determined as 16 nM.
